Laboratory results: ChEMBL document CHEMBL5233237, “Agonist and antagonist ligands of toll-like receptors 7 and 8: Ingenious tools for therapeutic purposes” (Eur J Med Chem, 2020)
pEC50, pKd: −log10 of the molar value. Values belong to the compound of their own block, whether it stands above or below them.

Tests used:
[1] = test system: B16; assay: Antitumor activity against mouse B16 cells xenografted in mouse assessed as inhibition of tumor growth at 2 mg measured after 3 days; format: functional; design: scale not given: the % may be the effect or the level left; settings: time 3 day
[2] = biological target: T1, Toll-like receptor 8 (Homo sapiens) (UniProt Q9NR97); assay: (§1) Agonist activity at human TLR8; settings: filed as agonist
T1 sequence (whole entry): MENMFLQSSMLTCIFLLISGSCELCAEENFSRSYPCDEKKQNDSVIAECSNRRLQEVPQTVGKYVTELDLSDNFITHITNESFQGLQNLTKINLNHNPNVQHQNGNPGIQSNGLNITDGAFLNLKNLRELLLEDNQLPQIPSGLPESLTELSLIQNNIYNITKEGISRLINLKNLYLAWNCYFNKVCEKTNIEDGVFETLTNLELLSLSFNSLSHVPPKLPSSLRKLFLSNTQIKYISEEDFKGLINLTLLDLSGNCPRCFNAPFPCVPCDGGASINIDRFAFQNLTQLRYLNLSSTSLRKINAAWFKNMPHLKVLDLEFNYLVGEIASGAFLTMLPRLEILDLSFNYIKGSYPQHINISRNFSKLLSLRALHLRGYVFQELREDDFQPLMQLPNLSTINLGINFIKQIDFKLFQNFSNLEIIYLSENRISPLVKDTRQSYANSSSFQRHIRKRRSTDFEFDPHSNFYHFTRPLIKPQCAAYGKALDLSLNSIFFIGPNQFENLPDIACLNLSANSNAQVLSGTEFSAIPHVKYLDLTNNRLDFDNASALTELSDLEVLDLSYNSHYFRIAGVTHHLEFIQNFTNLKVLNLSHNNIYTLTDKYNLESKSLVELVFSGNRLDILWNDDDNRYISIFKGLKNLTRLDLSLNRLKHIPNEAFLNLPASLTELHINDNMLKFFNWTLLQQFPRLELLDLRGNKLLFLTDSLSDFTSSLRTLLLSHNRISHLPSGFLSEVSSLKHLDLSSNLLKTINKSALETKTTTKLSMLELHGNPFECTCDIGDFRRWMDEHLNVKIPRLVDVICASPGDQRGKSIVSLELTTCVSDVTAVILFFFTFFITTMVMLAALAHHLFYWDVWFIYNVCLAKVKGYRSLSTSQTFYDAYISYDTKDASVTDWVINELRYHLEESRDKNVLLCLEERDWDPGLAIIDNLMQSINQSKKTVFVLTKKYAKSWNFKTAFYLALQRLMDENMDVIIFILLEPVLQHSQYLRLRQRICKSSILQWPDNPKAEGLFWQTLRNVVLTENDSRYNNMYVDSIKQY

[3] = biological target: Mitogen-activated protein kinase 3 (Homo sapiens, UniProt P27361); assay: Binding affinity to ERK1 (unknown origin) by surface plasmon resonance assay
[4] = Binding affinity to RasGAP (unknown origin) by surface plasmon resonance assay; design: species or system Homo sapiens
[5] = test system: Mus musculus; assay: Potency index ratio of imiquimod MED to test compound MED for induction of IFN in po dosed mouse assessed as minimum effective dose; format: functional
[6] = test system: Hepatitis C virus; assay: Antiviral activity against HCV infected in human Huh-7 cells assessed as reduction in HCV level at 1 to 10 uM measured after 24 h by real-time PCR method; design: scale not given: the % may be the effect or the level left; settings: dose 1-10 µM
[7] = biological target: T2, Toll-like receptor 8 (Homo sapiens, UniProt Q9NR97); assay: Agonist activity at human TLR8 transfected in HEK-Blue hTLR8 cells; format: cell-based
T2 sequence (Q9NR97 whole entry): T1 sequence (whole entry)

[8] = biological target: T3, Toll-like receptor 7 (Homo sapiens, UniProt Q9NYK1); assay: Agonist activity at human TLR7 transfected in HEK-Blue hTLR7 cells; format: cell-based
T3 sequence (Q9NYK1 whole entry): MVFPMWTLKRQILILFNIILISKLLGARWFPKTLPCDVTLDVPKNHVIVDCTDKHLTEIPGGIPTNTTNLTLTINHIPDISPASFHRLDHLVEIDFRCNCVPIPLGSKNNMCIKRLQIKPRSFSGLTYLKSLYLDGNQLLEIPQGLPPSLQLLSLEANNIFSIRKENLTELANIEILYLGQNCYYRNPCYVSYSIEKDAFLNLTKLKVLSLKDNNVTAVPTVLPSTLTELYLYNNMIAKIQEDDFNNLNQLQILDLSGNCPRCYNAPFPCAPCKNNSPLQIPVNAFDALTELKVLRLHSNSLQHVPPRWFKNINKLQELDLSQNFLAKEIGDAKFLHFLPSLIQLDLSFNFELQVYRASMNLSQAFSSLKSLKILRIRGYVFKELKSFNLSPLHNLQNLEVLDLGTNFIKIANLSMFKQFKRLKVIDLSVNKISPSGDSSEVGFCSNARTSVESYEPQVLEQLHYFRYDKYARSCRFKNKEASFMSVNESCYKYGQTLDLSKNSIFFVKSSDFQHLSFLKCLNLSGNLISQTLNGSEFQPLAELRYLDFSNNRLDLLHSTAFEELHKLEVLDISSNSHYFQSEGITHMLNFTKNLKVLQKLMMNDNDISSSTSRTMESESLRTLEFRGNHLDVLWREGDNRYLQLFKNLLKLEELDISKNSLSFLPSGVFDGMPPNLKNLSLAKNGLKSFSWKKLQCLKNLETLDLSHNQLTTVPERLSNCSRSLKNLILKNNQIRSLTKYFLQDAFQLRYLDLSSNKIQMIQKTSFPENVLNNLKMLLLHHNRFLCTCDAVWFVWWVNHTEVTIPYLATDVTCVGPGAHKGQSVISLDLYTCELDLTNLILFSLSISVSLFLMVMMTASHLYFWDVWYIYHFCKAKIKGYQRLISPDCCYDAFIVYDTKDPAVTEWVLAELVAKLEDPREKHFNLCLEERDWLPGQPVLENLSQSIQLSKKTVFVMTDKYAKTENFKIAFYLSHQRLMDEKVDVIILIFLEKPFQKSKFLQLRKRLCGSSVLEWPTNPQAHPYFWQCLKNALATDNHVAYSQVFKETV

[9] = biological target: T2, Toll-like receptor 8; assay: Agonist activity in TLR8 (unknown origin) expressed in HEK293 cells assessed as induction of NF-kappa activation; format: cell-based
[10] = biological target: T2, Toll-like receptor 8; assay: as §1

Sequence of Mitogen-activated protein kinase 3 (P27361 whole entry): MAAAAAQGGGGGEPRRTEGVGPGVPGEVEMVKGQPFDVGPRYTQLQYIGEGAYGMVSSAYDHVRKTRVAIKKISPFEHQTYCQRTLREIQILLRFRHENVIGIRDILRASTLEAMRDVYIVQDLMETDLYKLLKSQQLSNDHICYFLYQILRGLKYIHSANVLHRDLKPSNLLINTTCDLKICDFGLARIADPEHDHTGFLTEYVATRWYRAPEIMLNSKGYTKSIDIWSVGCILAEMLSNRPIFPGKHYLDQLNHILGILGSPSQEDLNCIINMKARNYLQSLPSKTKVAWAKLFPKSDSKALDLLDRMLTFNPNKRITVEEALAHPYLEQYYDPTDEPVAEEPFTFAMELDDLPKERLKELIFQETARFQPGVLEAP

SMILES: C=CCn1c(=O)n([C@@H]2O[C@H](CO)[C@@H](O)[C@H]2O)c2nc(N)[nH]c(=O)c21 [LOXORIBINE]
Activity [1]: 96%

SMILES: Cc1cc(Nc2ncc3c(n2)N(C)C(=O)N(c2cc(NC(=O)c4cccc(C(F)(F)F)c4)ccc2C)C3)n(C)n1
pKd [3]: 7.01
pKd [4]: 6.67

SMILES: COCCOc1nc(N)c2[nH]c(=O)n(Cc3ccccc3)c2n1
Ratio [5]: 100
Activity [6]: 60%

Next, values leading:

EC50 [2]: 1600 nM
SMILES: CCCCc1nc2c(N)nc3cc(C(=O)OC)ccc3c2n1CCCCCN

pEC50 [7]: 7.52
pEC50 [8]: 4.82
pEC50 [9]: 7.52
SMILES: CCOC(=O)C1=Cc2ccc(-c3cccc(C#N)c3)cc2N=C(N)C1

pEC50 [10]: 6.70
SMILES: CCCCc1nc2c(N)nc3ccccc3c2s1
